Results on twelve compounds are retold here after ChEMBL document CHEMBL5113545, “Selective Cyclin-Dependent Kinase Inhibitors and Their Application in Cancer Therapy” (ACS Med Chem Lett, 2022).

As a reminder, the IC50 is the point on the concentration scale where inhibition reaches its midpoint.

For this test, the target named is Cyclin-dependent kinase 2/cyclin E1 (Homo sapiens, UniProt P24941). In words: Inhibition of human full length recombinant C-terminal 6His-tagged CDK2/N-terminal GST-tagged cyclin E1 expressed in baculovirus-infected Sf21 cells using 5-FAM- QSPKKG peptide as substrate preincubated with enzyme and ATP for 30 mins followed by substrate addition and measured after 20 hrs by fluorescence- based microfluidic mobility shift assay.
In the case of `Cc1cc(CC(=O)Nc2cc([C@H]3CC[C@@H](OC(=O)N4CCC4(C)C)C3)[nH]n2)on1`, the concentration for half-maximal inhibition (IC50) is at most 100 nM.
On to `Cc1ncc(CC(=O)Nc2cc([C@H]3CC[C@@H](OC(=O)NC(C)C)C3)[nH]n2)s1`, for which the IC50 is at most 100 nM.
Consider `COc1cc(CC(=O)Nc2cc([C@H]3CC[C@@H](OC(=O)NC(C)C)C3)[nH]n2)ccn1`, for which the 50% inhibitory concentration (IC50) is at most 100 nM.
Regarding `CC(C)NC(=O)O[C@H]1CC[C@@H](c2cc(NC(=O)c3ccnn3C)n[nH]2)C1`, the IC50 was at most 100 nM.
Next, `CC(C)NC(=O)O[C@@H]1CC[C@H](c2cc(NC(=O)Cc3ccccc3S(C)(=O)=O)n[nH]2)C1`: at most 100 nM; `CC1(NC(=O)O[C@@H]2CC[C@H](c3cc(NC(=O)Cc4ccccc4)n[nH]3)C2)CC1`: at most 100 nM.
Next, `CC(C)NC(=O)O[C@@H]1CC[C@H](c2cc(NC(=O)c3ccnc4ncsc34)n[nH]2)C1`: at most 100 nM; `CC(C)NC(=O)O[C@@H]1CC[C@H](c2cc(NC(=O)c3ccnn3C)n[nH]2)C1`: at most 100 nM; `Cc1cc(CC(=O)Nc2cc([C@H]3CCC[C@@H](OC(=O)NC4(C)CC4)CC3)[nH]n2)on1`: at most 100 nM.
Next, `COCc1cc(C(=O)Nc2cc([C@H]3CC[C@@H](OC(=O)N(C)C(C)C)C3)[nH]n2)n(C)n1`: at most 100 nM; `CC1(NC(=O)O[C@H]2CC[C@@H](c3cc(NC(=O)Cc4ccccc4)n[nH]3)C2)CC1`: at most 100 nM; `CC(C)NC(=O)O[C@@H]1CC[C@H](c2cc(NC(=O)Cc3ccccc3)n[nH]2)C1`: at most 100 nM.
